Experimental data: patent US20240081300A1, “ADRENERGIC MECHANISMS OF AUDIOGENIC SEIZURE-INDUCED DEATH IN MOUSE MODEL OF SCN8A ENCEPHALOPATHY” (University of Virginia Patent Foundation, priority 2021, published 2024)
Entries after “also recorded” stand apart in the source; their conditions may differ.

What was measured:
[1] = system: maximal electroshock seizures; conditions: intracerebroventricular injection (Kruse et al., 2019); cited from earlier work
[2] = system: P20-21 D/+ mice (Scn8a N1768D); assay: Audiogenic seizure-induced death in P20-21 D/+ mice (adrenergic agonists, adrenergic blockade with mechanical ventilation); format: in vivo, mouse; conditions: for postictal breathing recovery (plethysmography): 3 mg/kg phenylephrine i.p. 1 minute prior
Procedure: (§1) Audiogenic seizure assessment. To test for audiogenic seizures mice were taken from their home cage and transferred to a clean test cage where they were allowed to acclimate for ˜20 seconds before the onset of the acoustic stimulus. Similar to a method described previously (Martin et al., 2020), a sonicator (Branson 200 ultrasonic cleaner) was used to produce the audiogenic stimulus directly adjacent to the test cage.
(§2) Audiogenic seizures were recorded using a laptop webcam. Duration of seizure phases were analyzed by taking the time in seconds that the mouse spent in each of the phases: a wild-running phase characterized by fast circular running throughout the cage, a tonic phase characterized by hindlimb extension and muscle rigidity, a clonic phase typified by myoclonic jerking of the hindlimbs, and recovery exemplified when the mouse ceased myoclonic jerking and righted itself. In cases where death occurred, the end of the tonic phase was apparent at the point of hindlimb muscle relaxation.
(§3) For recording of only breathing in pharmacological experiments, non-implanted mice were placed in the chambers immediately after injection of pharmacological agents. Stimulation of audiogenic seizures and recording of breathing were performed as described above.
Mechanical ventilation. For the mechanical ventilation of P20-21 D/+ mice during an audiogenic seizure, we quickly placed a custom-made 3 mL pipet which fit snuggly over the mouse's nose and mouth and provided regular pulses of air (˜1 mL at 2 Hz). The ventilation was terminated after the mouse initiated gasping behavior or 20 s after the animal experienced sudden death.
Adrenergic receptor pharmacology. All chemicals were purchased from Sigma Aldrich and were either of pharmaceutical grade or were sterile filtered prior to injection. Injections were given intraperitoneal in a volume of 50-100 ul sterile saline per […] of mouse weight (e.g. 0.1 mL for a […] adult mouse). […] Injection of 50-100 ul sterile saline per […] of mouse weight was used as control.

DBA1 mice = conditions: intracerebroventricular injection (Zhao et al., 2017); cited from earlier work
[3] = system: adult D/+ mice (Scn8a N1768D); assay: Audiogenic seizure survival in adult D/+ mice after adrenergic receptor inhibition; format: in vivo, mouse; conditions: 10 mg/kg sotalol i.p. 15 minutes prior to audiogenic seizure stimulation
Procedure: as §1, §2, §3
Mechanical ventilation. […]

## CNC[C@H](O)c1cccc(O)c1 [phenylephrine, 3-[(1R)-1-hydroxy-2-(methylamino)ethyl]phenol]
[1]
  prevention of death from maximal electroshock seizures: prevents death
[2]; 3 mg/kg phenylephrine i.p. 1 minute prior to audiogenic seizure stimulation, 3 mg/kg
  survival after audiogenic seizure (mice surviving of mice tested): 7 out of 8 and rescued death
[2]; 3 mg/kg phenylephrine i.p. 1 minute prior to audiogenic seizure stimulation, listed as PE, 3 mg/kg
  survival after audiogenic seizure (mice surviving of mice tested): significantly elevated rates of survival
[2]; 3 mg/kg
  postictal breathing recovery (plethysmography): promoted postictal breathing recovery
[2]; listed as PE, 3 mg/kg
  postictal breathing recovery (plethysmography): breathing also ceased during the tonic phase but recovered

## CNCC[C@@H](Oc1ccccc1C)c1ccccc1 [atomoxetine]
DBA1 mice
  prevention of death from audiogenic seizures: prevents death

## CNC[C@H](O)c1ccc(O)c(O)c1 [epinephrine]
[2]; 2 mg/kg epinephrine i.p. 1 minute prior to audiogenic seizure stimulation, 2 mg/kg
  survival after audiogenic seizure (mice rescued of mice tested): one of the five; also recorded: did not seem to result in rescue

## NC[C@H](O)c1ccc(O)c(O)c1 [NE, 4-[(1R)-2-amino-1-hydroxyethyl]benzene-1,2-diol]
[2]; 2 mg/kg norepinephrine i.p. 1 minute prior
  breathing recovery after tonic phase (plethysmography): resulted in breathing recovery
[2]; 2 mg/kg norepinephrine i.p. 1 minute prior to audiogenic seizure stimulation, saline 3 of 13, 2 mg/kg
  survival after audiogenic seizure (mice surviving of mice tested): 10 of 13 and significantly elevated rates of survival

## CC(C)NCC(O)c1ccc(NS(C)(=O)=O)cc1 (stereo not shown) [sotalol]
[3]
  survival after audiogenic seizure (mice surviving of mice tested): 12 out of 12 and had no affect on death rate
